# Assay results reported in EP4786454A1, “HETEROARYL DERIVATIVE AND USE THEREOF” (priority 2023, dated 2025).
# Like-named read-outs stand apart in the source and are kept apart here.
# How the values were obtained:
# P-gp (MDR1) = experiment: Permeability evaluation, bidirectional transport (P-gp substrate); type: in vitro ADME; conditions: dog, MDCK-MDR1; efflux ratio Papp (B-A)/Papp (A-B); read-out: HMDR1 ER
# Protocol: The purpose of this study was to evaluate and study the P-gp substrate of the compounds in MDR1 […] cells.
# Transport assay: The test sample, nadolol, and metoprolol were administered at a concentration of 2.00 µM, and digoxin was administered at a concentration of 10.0 µM. The administration was performed bidirectionally (A-B and B-A directions), with two replicates for each administration concentration. The dosing solution, receiving solution, and transport buffer were pre-incubated in a 37.0 °C water bath for 30 minutes. The cell layer was rinsed twice with transport buffer. The dosing solution and receiving solution were added to the corresponding wells of the cell plate, respectively (75.0 µL to each apical well and 250 µL to each basolateral well, respectively). After the addition of samples, the cell plate was incubated in an incubator at 37.0°C, 5.0% CO2 and saturated humidity for 90 minutes. The initial dosing solution was used as the T0 sample. After 90 minutes of incubation, samples were collected from each well and labeled as A-B receiver, B-A receiver, A-B donor, and B-A donor, respectively. After the sample collection, all samples were mixed with an appropriate volume of transport buffer and stop solution. All samples were vortexed, and then centrifuged at 20.0 °C and 3220 × g for 10 minutes. An appropriate volume of the supernatant was transferred to a sample analysis plate. After sealing the plate, the samples were stored at 2.0 to 8.0 °C if not analyzed immediately. Analysis was performed using LC-MS/MS.
# Cell membrane integrity assay: After the transport assay, the integrity of the MDR1-MDCK II cell layer was assayed by the Lucifer Yellow Rejection Assay. The remaining solution in the apical and basolateral wells was removed. 75.0 µL of transport buffer containing 100 µM Lucifer Yellow was added to the apical well, and 250 µL of transport buffer was added to the basolateral well, respectively. The cell plate was incubated in a cell culture incubator at 37 °C, 5% CO2 and saturated humidity for 30 minutes. Then, 20.0 µL of sample was taken from the apical end and mixed with 60.0 µL of transport buffer, and 80.0 µL of sample was taken from the basolateral end. The relative fluorescence unit (RFU) was measured at 425/528 nm (excitation/emission) using a microplate reader.
# In this study, the sample analysis of the compounds and control compounds of nadolol, metoprolol, and digoxin was performed using LC-MS/MS. The retention time of the analytes and internal standards, chromatogram acquisition, and chromatogram integration were processed using the software Analyst (Sciex, Framingham, MA, USA). […] Semi-quantitative determination was performed using the ratio of the peak area of analyte to the peak area of internal standard.
# The apparent permeability coefficient (Papp, cm/s), efflux ratio (ER), and recovery rate (%Solution Recovery) were calculated using the following formulas. Papp = (VR)/(Area × Time) × ([drug]receiver)/([drug]initial, donor) = (VR)/(Area × Time) × (CR)/(C0) [formula] Efflux Ratio = (Papp (B−A))/(Papp (A−B)) [formula] %Solution Recovery = (CR × VR + CD × VD)/(C0 × VD) × 100 [formula]
# VR is the volume of the receiver solution (0.0750 mL for side A, and 0.250 mL for side B); Area is the surface area of the cell monolayer (0.143 cm^2); Time is the incubation time (5400 s); C0 is the initial peak area ratio of the test compound or the control compound at the donor; VD is the volume of the donor (0.0750 mL for side A, and 0.250 mL for side B); CD and CR are the peak area ratios of the test compound or the control compound at the donor and the receiver, respectively. The transmittance of Lucifer Yellow (%Lucifer Yellow) was calculated using the following formula: %Lucifer Yellow = (VBasolateral × RFUBasolateral)/(VApical × RFUApical + VBasolateral × RFUBasolateral) × 100 [formula]
# RFUApical and RFUBasolateral are the relative fluorescence units of Lucifer Yellow at the apical and basolateral ends, respectively. […]
# hERG potassium channels = biological target: T1, hERG potassium channels (Homo sapiens, UniProt Q12809); experiment: Automated patch-clamp (Qpatch) assay on CHO-hERG cells; type: cell-based
# T1 construct: expressed in transfected cells; host or cells: CHO-hERG
# T1 sequence (Q12809 whole entry): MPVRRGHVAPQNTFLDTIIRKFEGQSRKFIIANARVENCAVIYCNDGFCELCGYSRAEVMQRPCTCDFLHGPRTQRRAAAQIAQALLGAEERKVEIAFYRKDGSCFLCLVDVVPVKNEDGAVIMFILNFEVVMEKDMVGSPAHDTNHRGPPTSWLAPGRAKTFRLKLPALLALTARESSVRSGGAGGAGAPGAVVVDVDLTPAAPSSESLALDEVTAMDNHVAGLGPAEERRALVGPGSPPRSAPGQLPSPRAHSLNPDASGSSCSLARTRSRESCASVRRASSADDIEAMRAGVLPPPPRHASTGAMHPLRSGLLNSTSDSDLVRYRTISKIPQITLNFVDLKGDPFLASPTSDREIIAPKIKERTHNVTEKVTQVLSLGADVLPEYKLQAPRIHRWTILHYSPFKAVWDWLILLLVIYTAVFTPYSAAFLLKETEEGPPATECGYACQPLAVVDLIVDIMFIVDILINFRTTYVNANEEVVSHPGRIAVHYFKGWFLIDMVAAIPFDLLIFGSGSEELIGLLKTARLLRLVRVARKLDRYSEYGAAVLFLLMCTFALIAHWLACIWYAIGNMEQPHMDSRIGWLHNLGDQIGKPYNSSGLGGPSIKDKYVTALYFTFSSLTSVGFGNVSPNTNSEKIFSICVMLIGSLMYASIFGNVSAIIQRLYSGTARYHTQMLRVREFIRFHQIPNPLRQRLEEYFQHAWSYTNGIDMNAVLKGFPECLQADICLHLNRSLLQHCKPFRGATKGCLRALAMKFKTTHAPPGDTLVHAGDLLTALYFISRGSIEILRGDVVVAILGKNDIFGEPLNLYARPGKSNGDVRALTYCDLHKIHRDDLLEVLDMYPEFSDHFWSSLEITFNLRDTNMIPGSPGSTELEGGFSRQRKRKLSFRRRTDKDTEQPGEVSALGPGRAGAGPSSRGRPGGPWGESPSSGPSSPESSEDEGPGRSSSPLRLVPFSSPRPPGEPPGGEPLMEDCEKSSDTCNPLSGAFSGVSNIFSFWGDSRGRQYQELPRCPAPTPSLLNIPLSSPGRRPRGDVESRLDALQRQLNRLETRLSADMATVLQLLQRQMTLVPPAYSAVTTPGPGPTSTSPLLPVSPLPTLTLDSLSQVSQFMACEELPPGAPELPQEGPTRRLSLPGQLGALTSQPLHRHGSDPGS
# Protocol: CHO-hERG cells were cultured in a 175 cm^2 culture flask. When cells grew to a density of 60 to 80%, the culture medium was removed. Cells were washed once with 7 mL of PBS (Phosphate Buffered Saline), and then 3 mL of cell dissociation reagent was added for digestion. After the digestion was completed, 7 mL of culture medium was added for neutralization, and then the mixture was centrifuged. The supernatant was aspirated, and then 5 mL of culture medium was added to resuspend the cells and ensure that the cell density was 2~5×10^6/mL.
# The compound stock solution was diluted with DMSO. 10 µL of compound stock solution was added to 20 µL of DMSO solution, followed by 3-fold serial dilution to obtain 6 DMSO concentrations. 4 µL of the compound solution at each of the six DMSO concentrations was added to 396 µL of extracellular solution to achieve a 100-fold dilution to obtain six intermediate concentrations. Then, 80 µL of the compound solution at each of the six intermediate concentrations was added to 320 µL of extracellular solution to achieve a 5-fold dilution to the desired final test concentrations. […]
# The electrophysiological process was recorded. […] This voltage stimulation was applied every 15 seconds, and recorded for 2 minutes. The extracellular solution was then given, and recorded for 5 minutes. […]
# Assay data were analyzed by GraphPad Prism 5.0 software. […]
Compound,efflux ratio (P-gp (MDR1)),"IC50 (hERG potassium channels; CHO-hERG cells, highest test concentration 40.00 µM, read-out: IC50) [µM]",IC50 (hERG potassium channels) [µM],"efflux ratio at 90 min, 2 µM (P-gp (MDR1))"
CC(C)(C)CC(=O)Nc1nc2c(F)cc(C#N)cn2c1C12CC(C1)C2 [Compound 5],3.41,,,
CC(C)(C)CC(=O)Nc1nc2c(F)cc(C#N)cn2c1C1=CCCC1 [Compound 3],4.15,> 40,,
CC(C)(C)CC(=O)Nc1nc2c(F)cc(C#N)cn2c1-c1ccc(OC(F)(F)F)cc1 [Compound 1],,,> 40,5.04
